ChEMBL document CHEMBL4321825, “Discovery of a Series of 5-Azaquinazolines as Orally Efficacious IRAK4 Inhibitors Targeting MyD88L265P Mutant Diffuse Large B Cell Lymphoma” (J Med Chem, 2019)
pIC50: −log10 of the molar value.

Legend:
[1] = molecular target: T1, Interleukin-1 receptor-associated kinase 4 (Homo sapiens, UniProt Q9NWZ3); test: Inhibition of IRAK4 (unknown origin) in presence of 5 mM ATP by enzymatic assay
T1 sequence (Q9NWZ3 whole entry): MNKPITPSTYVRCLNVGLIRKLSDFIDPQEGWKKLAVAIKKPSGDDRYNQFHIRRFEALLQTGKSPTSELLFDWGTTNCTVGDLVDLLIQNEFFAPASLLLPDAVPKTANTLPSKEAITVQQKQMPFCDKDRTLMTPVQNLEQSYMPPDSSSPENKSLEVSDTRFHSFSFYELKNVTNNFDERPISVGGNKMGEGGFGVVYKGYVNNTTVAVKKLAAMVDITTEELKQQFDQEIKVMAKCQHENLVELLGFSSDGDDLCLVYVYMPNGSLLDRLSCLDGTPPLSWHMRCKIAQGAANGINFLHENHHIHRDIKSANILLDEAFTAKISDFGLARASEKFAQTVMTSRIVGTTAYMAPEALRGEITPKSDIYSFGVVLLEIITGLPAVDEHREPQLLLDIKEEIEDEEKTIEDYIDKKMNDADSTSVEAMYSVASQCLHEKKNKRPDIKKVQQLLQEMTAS

[2] = molecular target: T1, Interleukin-1 receptor-associated kinase 4; test: Inhibition of IRAK4 (unknown origin) by cell based assay
[3] = Lipophilicity, logD of the compound at pH 7.4 by shake-flask assay; assay type: physicochemical; conditions: buffer
[4] = Intrinsic clearance in human hepatocytes assessed per million cells; assay type: ADME, cell-based, Hepatocyte; conditions: read-out: CLH
[5] = Intrinsic clearance in rat hepatocytes assessed per million cells; assay type: ADME, cell-based, Hepatocyte; conditions: read-out: CLH
[6] = Intrinsic permeability in human Caco2 cells; assay type: ADME, cell-based; conditions: Caco-2
[7] = Efflux ratio in human Caco2 cells; assay type: ADME, cell-based; conditions: Caco-2
[8] = Clearance in rat at 0.5 mg/kg, iv; assay type: ADME, organism-based; conditions: in vivo
[9] = Oral bioavailability in rat at 1 mg/kg; assay type: ADME, organism-based; conditions: in vivo

| SMILES | pIC50 [1] | pIC50 [2] | logD [3] | hepatocyte CLint [4] [µL/min/1e6 cells] | hepatocyte CLint [5] [µL/min/1e6 cells] | Papp [6] [×10⁻⁶ cm/s] | efflux ratio [7] | clearance [8] [mL/min/kg] | bioavailability [9] [%] |
| --- | --- | --- | --- | --- | --- | --- | --- | --- | --- |
| CC(=O)N1CCN([C@H]2CC[C@H](Nc3ncnc4ccc(C#N)cc34)CC2)CC1 | 6.91 | 6.38 | 1.4 | < 1 | < 1 | 4.2 | 19 | 19 |  |
| COC(=O)N1CCN([C@H]2CC[C@H](Nc3nc(Nc4cnn(C)c4)nc4ccc(C(C)(C)C#N)nc34)CC2)CC1 | 7.16 | 5.80 | 3 |  | 18 |  |  |  |  |
| N#Cc1ccc2ncnc(N[C@H]3CC[C@H](N4CCOCC4)CC3)c2c1 | 7.34 | 6.60 | 1.6 | < 1.2 | 3.4 | 18 | 1.6 | 20 | 29 |
| COC(=O)N1CCN([C@H]2CC[C@H](Nc3nc(Nc4cnn(C)c4)nc4ccc(C#N)cc34)CC2)CC1 | 9.00 | 7.47 | 3.2 | < 1 | 5.4 | 3 | 46 | 11 | 10 |
| COC(=O)N1CCN([C@H]2CC[C@H](Nc3nc(Nc4cnn(C)c4)nc4ccc(C#N)nc34)CC2)CC1 | 8.30 | 7.32 | 2.7 |  | 2.6 |  |  |  |  |
| COC(=O)N1CCN([C@H]2CC[C@H](Nc3ncnc4ccc(C)cc34)CC2)CC1 | 7.42 | 6.70 | 2.5 | < 1 | 10 | 28 | 0.7 |  |  |
| COC(=O)N1CCN([C@H]2CC[C@H](Nc3nc(Nc4cnn(C)c4)nc4ccc(C(C)C#N)nc34)CC2)CC1 (stereo not given in full) | 8.22 | 6.89 | 2.8 |  | 26 |  |  |  |  |
